{
  "source": "patent US20010007758A1",
  "about": "“Treatment of multiple sclerosis using COP-1 and Th2-enhancing cytokines” (Autoimmune, Inc., priority 1998, published 2001)",
  "origin": "cited, not measured here",
  "key": {"[1]": {"system": "MBP-specific T cells", "details": "experiments in mice"}, "[2]": {"system": "T cell", "details": "oral administration to rats"}, "[3]": {"system": "experimental allergic encephalitis (EAE)", "details": "in vivo"}, "[4]": {"system": "MS", "details": "daily subcutaneous injections of 20 mg"}, "[5]": {"system": "T suppressor cells specific for MBP"}, "[6]": {"system": "EAE", "details": "oral administration to rats"}, "[7]": {"system": "EAE", "details": "oral feeding; EAE induced with 0.4 mg mouse MBP; monitored 35 days"}},
  "data": [
    {"molecule": "glatiramer acetate [COP-1]", "values": [
      {"measurement": "effect on MBP-specific T cells involved in destruction of central nervous system tissue in EAE", "setting": "[1]", "result": "specifically inhibits"},
      {"measurement": "T cell proliferative responses", "setting": "[2]", "result": "inhibited"},
      {"measurement": "TH1 cytokine production", "setting": "[2]", "result": "inhibited"},
      {"measurement": "encephalitogenicity (causes EAE when injected)", "setting": "[3]", "result": "not encephalitogenic"},
      {"measurement": "Expanded Disability Status Scale", "setting": "[4]", "result": "significant improvement"},
      {"measurement": "annualized relapse rate, lower in treated patients", "setting": "[4]", "result": 29, "unit": "%"},
      {"measurement": "proportion of patients that did not have a relapse in clinical disease", "setting": "[4]", "result": 34, "unit": "%"},
      {"measurement": "induction of T suppressor cells specific for MBP", "setting": "[5]", "result": "induce T suppressor cells"},
      {"measurement": "severity and incidence of EAE", "setting": "[6]", "result": "suppressed"}
    ]},
    {"molecule": "MBP: myelin basic protein, a component of myelin in the central nervous system (protein, UniProt P02686 1-304, looked up) Myelin basic protein: MGNHAGKRELNAEKASTNSETNRGESEKKRNLGELSRTTSEDNEVFGEADANQNNGTSSQDTAVTDSKRTADPKNAWQDAHPADPGSRPHLIRLFSRDAPGREDNTFKDRPSESDELQTIQEDSAATSESLDVMASQKRPSQRHGSKYLATASTMDHARHGFLPRHRDTGILDSIGRFFGGDRGAPKRGSGKDSHHPARTAHYGSLPQKSHGRTQDENPVVHFFKNIVTPRTPPPSQGKGRGLSLSRFSWGAEGQRPGFGYGGRASDYKSAHKGFKGVDAQGTLSKIFKLGGRDSRSGSPMARR", "values": [
      {"measurement": "encephalitogenicity (causes EAE when injected)", "setting": "[3]", "result": "highly encephalitogenic"},
      {"measurement": "delay in disease onset", "setting": "[7]", "result": 22, "unit": "days"}
    ]},
    {"molecule": "IL-4: interleukin-4, a Th2-enhancing cytokine (protein, UniProt P05112 25-153, looked up) Interleukin-4: HKCDITLQEIIKTLNSLTEQKTLCTELTVTDIFAASKNTTEKETFCRAATVLRQFYSHHEKDTRCLGATAQQFHRHKQLIRFLKRLDRNLWGLAGLNSCPVKEANQSTLENFLERLKTIMREKYSKCSS", "values": [
      {"measurement": "delay in disease onset", "setting": "[7]", "result": 21, "unit": "days"}
    ]}
  ]
}
